# Results: US9079866B2, “Flap modulators” (JANSSEN PHARMACEUTICA NV, priority 2013, dated 2015)
# Where a name gives a salt, the structure may show the parent alone. Read-outs that look alike come from different tables or passages of the source.
# Key:
# [1] = system: leukotriene pathway in human whole blood (LTB4 levels); test: Human whole blood assay (A23187-stimulated LTB4); format: cell-based; details: Homo sapiens, human whole blood diluted 1:1, A23187-stimulated; read-out: LTB4 IC50 1:1
# How it was run: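 Heparinised human whole blood, diluted 1:1 in RPMI, was pre-incubated with test compounds for 15 min at 37° Celsius, then stimulated with A23187 (7 μg/mL) for 30 min at 37° Celsius. Plasma LTB4 was measured by immunoassay kit; IC50 from 4-parameter fit; single replicate, at least one healthy donor.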
# human FLAP = human FLAP (Homo sapiens (Human), UniProt P20292); test: FLAP binding assay (HTRF format)
# How it was run: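 Samples were run in duplicate on each of two assay plates, the results were averaged, and the signal was expressed as an HTRF ratio.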
# [2] = read-out: FLAP Binding wild type HTRF Ki
# Chain of human FLAP (P20292 whole entry): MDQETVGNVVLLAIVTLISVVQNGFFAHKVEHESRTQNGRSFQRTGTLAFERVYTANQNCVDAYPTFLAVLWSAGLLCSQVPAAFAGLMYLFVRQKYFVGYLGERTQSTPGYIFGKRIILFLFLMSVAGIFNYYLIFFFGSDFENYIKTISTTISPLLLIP
SMILES,IC50 [1],"Ki (human FLAP; wild type FLAP, HTRF format)",Ki (human FLAP; [2])
"Cc1nc(N)cc(Oc2ccccc2-c2ccc(-c3cnc(N)nc3)c(F)c2)n1 [Example 622, 5-{2′-[(6-Amino-2-methylpyrimidin-4-yl)oxy]-3-fluorobiphenyl-4-yl}pyrimidin-2-amine]",340 nM,46.1 nM,
"Cc1nc(N)cc(Oc2ccccc2-c2ccc(-c3cnc(N)cn3)c(F)c2)n1 [Example 623, 6-{[4′-(5-Aminopyrazin-2-yl)-3′-fluorobiphenyl-2-yl]oxy}-2-methylpyrimidin-4-amine]",93.5 nM,4.9 nM,
"Nc1cnc(-c2ccc(-c3ccccc3Oc3cccc(C(F)(F)F)n3)cc2F)cn1 [Example 625, 5-(3-Fluoro-2′-{[6-(trifluoromethyl)pyridin-2-yl]oxy}biphenyl-4-yl)pyrazin-2-amine]",173 nM,7.8 nM,
"N#Cc1ccc(Oc2ccccc2-c2ccc(-c3cnc(N)cn3)c(F)c2)nc1 [Example 626, 6-{[4′-(5-Aminopyrazin-2-yl)-3′-fluorobiphenyl-2-yl]oxy}pyridine-3-carbonitrile]",45.3 nM,6.2 nM,
"N#Cc1ccc(Oc2ccccc2-c2ccc(-c3cnc(N)nc3)c(F)c2)nc1 [Example 627, 6-{[4′-(2-Aminopyrimidin-5-yl)-3′-fluorobiphenyl-2-yl]oxy}pyridine-3-carbonitrile]",366 nM,43.7 nM,
"Nc1cnc(-c2ccc(-c3ccccc3Oc3cc(C4CC4)ncn3)cc2F)cn1 [Example 636, 5-{2′-[(6-Cyclopropylpyrimidin-4-yl)oxy]-3-fluorobiphenyl-4-yl}pyrazin-2-amine]",107 nM,4.6 nM,
"Nc1ncc(-c2ccc(-c3ccccc3Oc3cc(C4CC4)ncn3)cc2F)cn1 [Example 637, 5-{2′-[(6-Cyclopropylpyrimidin-4-yl)oxy]-3-fluorobiphenyl-4-yl}pyrimidin-2-amine]",398 nM,18.8 nM,
"Nc1cnc(-c2ccc(-c3ccccc3Oc3ccnc(N)c3)cc2F)cn1 [Example 638, 5-{2′-[(2-Aminopyridin-4-yl)oxy]-3-fluorobiphenyl-4-yl}pyrazin-2-amine]",14.8 nM,1.4 nM,
"Nc1cc(Oc2ccccc2-c2ccc(-c3cnc(N)nc3)c(F)c2)ccn1 [Example 639, 5-{2′-[(2-Aminopyridin-4-yl)oxy]-3-fluorobiphenyl-4-yl}pyrimidin-2-amine]",67 nM,7.2 nM,
"N#CCOc1ccccc1-c1ccc(-c2cnc(N)cn2)c(F)c1 [Example 642, {[4′-(5-Aminopyrazin-2-yl)-3′-fluorobiphenyl-2-yl]oxy}acetonitrile]",981 nM,78.8 nM,
"N#CCOc1ccccc1-c1ccc(-c2cnc(N)nc2)c(F)c1 [Example 643, {[4′-(2-Aminopyrimidin-5-yl)-3′-fluorobiphenyl-2-yl]oxy}acetonitrile]",4290 nM,322 nM,
"Nc1ncc(-c2ccc(-c3cccnc3O[C@H]3CC[C@H](N)CC3)cc2F)cn1 [Example 651, 5-(4-{2-[(trans-4-Aminocyclohexyl)oxy]pyridin-3-yl}-2-fluorophenyl)pyrimidin-2-amine]",1540 nM,306 nM,
"Nc1cnc(-c2ccc(-c3cccnc3O[C@H]3CC[C@H](N)CC3)cc2F)cn1 [Example 652, 5-(4-{2-[(trans-4-Aminocyclohexyl)oxy]pyridin-3-yl}-2-fluorophenyl)pyrazin-2-amine formic acid salt]",842 nM,62.7 nM,
"Nc1cnc(-c2ccc(-c3cccnc3OC3CCOCC3)cc2F)cn1 [Example 653, 5-{2-Fluoro-4-[2-(tetrahydro-2H-pyran-4-yloxy)pyridin-3-yl]phenyl}pyrazin-2-amine]",527 nM,17.3 nM,
"Nc1ncc(-c2ccc(-c3cccnc3OC3CCOCC3)cc2F)cn1 [Example 654, 5-{2-Fluoro-4-[2-(tetrahydro-2H-pyran-4-yloxy)pyridin-3-yl]phenyl}pyrimidin-2-amine]",1050 nM,130 nM,
"Nc1ccc(-c2ccc(-c3ccccc3S(=O)(=O)N3CCOCC3)cc2F)cn1 [Example 660, 5-(3-Fluoro-2′-(morpholinosulfonyl)-[1,1′-biphenyl]-4-yl)pyridin-2-amine]",> 10000 nM,83.3 nM,
"Nc1ccc(-c2ccc(-c3ccccc3S(=O)(=O)N3C[C@@H]4C[C@H]3CO4)cc2F)cn1 [Example 663, 5-(2′-((1S,4S)-2-Oxa-5-azabicyclo[2.2.1]heptan-5-ylsulfonyl)-3-fluoro-[1,1′-biphenyl]-4-yl)pyridin-2-amine]",34.7 nM,5.8 nM,

SMILES,IC50 [1],"Ki (human FLAP; wild type FLAP, HTRF format)",Ki (human FLAP; [2])
"CC(C)(CO)NS(=O)(=O)c1ccccc1-c1ccc(-c2ccc(N)nc2)c(F)c1 [Example 665, 4′-(6-Aminopyridin-3-yl)-3′-fluoro-N-(1-hydroxy-2-methylpropan-2-yl)-[1,1′-biphenyl]-2-sulfonamide]",22.4 nM,2.6 nM,
"CC(C)(CO)NS(=O)(=O)c1ccccc1-c1ccc(-c2cnc(N)c(F)c2)c(F)c1 [Example 667, 4′-(6-Amino-5-fluoropyridin-3-yl)-3′-fluoro-N-(1-hydroxy-2-methylpropan-2-yl)-[1,1′-biphenyl]-2-sulfonamide]",39.6 nM,6 nM,
"C[C@@H]([C@@H](O)c1ccccc1)N(C)S(=O)(=O)c1ccccc1-c1ccc(-c2cnc(N)c(F)c2)c(F)c1 [Example 669, 4′-(6-Amino-5-fluoropyridin-3-yl)-3′-fluoro-N-((1S,2S)-1-hydroxy-1-phenylpropan-2-yl)-N-methyl-[1,1′-biphenyl]-2-sulfonamide]",106 nM,4 nM,
"C[C@@H](O)CNS(=O)(=O)c1ccccc1-c1cnc(-c2cnc(N)nc2)c(F)c1 [Example 673, 2-[6-(2-Aminopyrimidin-5-yl)-5-fluoropyridin-3-yl]-N-[(2R)-2-hydroxypropyl]benzenesulfonamide]",101 nM,134 nM,
"CCNS(=O)(=O)c1cc(C(F)(F)F)ccc1-c1cnc(-c2cnc(N)nc2)c(F)c1 [Example 674, 2-[6-(2-Aminopyrimidin-5-yl)-5-fluoropyridin-3-yl]-N-ethyl-5-(trifluoromethyl)benzenesulfonamide]",17.4 nM,2.4 nM,
"CC(C)(C)NS(=O)(=O)c1ccccc1-c1cnc(-c2cnc(N)nc2)c(F)c1 [Example 675, 2-[6-(2-Aminopyrimidin-5-yl)-5-fluoropyridin-3-yl]-N-tert-butylbenzenesulfonamide]",55.1 nM,0.7 nM,
"Nc1ncc(-c2ccc(-c3ccc(C(F)(F)F)cc3CN3CCOCC3)cn2)cn1 [Example 676, 5-{5-[2-(Morpholin-4-ylmethyl)-4-(trifluoromethyl)phenyl]pyridin-2-yl}pyrimidin-2-amine]",3710 nM,234 nM,
"Nc1ncc(-c2ccc(-c3ccccc3S(=O)(=O)N3CCCC(F)(F)C3)cn2)cn1 [Example 679, 5-(5-{2-[(3,3-Difluoropiperidin-1-yl)sulfonyl]phenyl}pyridin-2-yl)pyrimidin-2-amine trifluoroacetic acid salt]",205 nM,,132 nM
"Nc1ncc(-c2ccc(-c3ccccc3S(=O)(=O)N3CCC(F)(F)C3)cn2)cn1 [Example 680, 5-(5-{2-[(3,3-Difluoropyrrolidin-1-yl)sulfonyl]phenyl}pyridin-2-yl)pyrimidin-2-amine trifluoroacetic acid salt]",1050 nM,,610 nM
"Nc1ncc(-c2ccc(-c3ccccc3S(=O)(=O)N3CCCCCC3)cn2)cn1 [Example 681, 5-{5-[2-(Azepan-1-ylsulfonyl)phenyl]pyridin-2-yl}pyrimidin-2-amine trifluoroacetic acid salt]",106 nM,52.2 nM,
"Nc1ncc(-c2ccc(-c3ccccc3S(=O)(=O)N3CCC(F)(F)CC3)cn2)cn1 [Example 682, 5-(5-{2-[(4,4-Difluoropiperidin-1-yl)sulfonyl]phenyl}pyridin-2-yl)pyrimidin-2-amine trifluoroacetic acid salt]",264 nM,224 nM,
"CCNS(=O)(=O)c1ccccc1-c1ccc(-c2cnc(N)nc2)nc1 [Example 683, 2-[6-(2-Aminopyrimidin-5-yl)pyridin-3-yl]-N-ethylbenzenesulfonamide trifluoroacetic acid salt]",280 nM,602 nM,
"Nc1ncc(-c2ccc(-c3ccccc3S(=O)(=O)NC(C3CC3)C3CC3)cn2)cn1 [Example 684, 2-[6-(2-Aminopyrimidin-5-yl)pyridin-3-yl]-N-(dicyclopropylmethyl)benzenesulfonamide trifluoroacetic acid salt]",134 nM,46.3 nM,
"C[C@H](NS(=O)(=O)c1ccccc1-c1ccc(-c2cnc(N)nc2)nc1)C(F)(F)F [Example 685, 2-[6-(2-Aminopyrimidin-5-yl)pyridin-3-yl]-N-[(1S)-2,2,2-trifluoro-1-methylethyl]benzenesulfonamide trifluoroacetic acid salt]",115 nM,52.3 nM,
"C[C@@H](NS(=O)(=O)c1ccccc1-c1ccc(-c2cnc(N)nc2)nc1)C(F)(F)F [Example 686, 2-[6-(2-Aminopyrimidin-5-yl)pyridin-3-yl]-N-[(1R)-2,2,2-trifluoro-1-methylethyl]benzenesulfonamide trifluoroacetic acid salt]",1490 nM,334 nM,
"Nc1ncc(-c2ccc(-c3ccccc3S(=O)(=O)N3CCNC(=O)C3)cn2)cn1 [Example 687, 4-({2-[6-(2-Aminopyrimidin-5-yl)pyridin-3-yl]phenyl}sulonyl)piperazin-2-one]",3550 nM,740 nM,
"C[C@H](O)CNS(=O)(=O)c1ccccc1-c1ccc(-c2cnc(N)nc2)nc1 [Example 688, 2-[6-(2-Aminopyrimidin-5-yl)pyridin-3-yl]-N-[(2S)-2-hydroxypropyl]benzenesulfonamide]",1180 nM,696 nM,
